Test results reported in patent publication US20030004211A1, “Carbohydrate modifying agent and drinks containing the modifying agent” (priority 2001, published 2003).

Experiments:
mutans streptococci = experiment: in vitro growth and adherence of cariogenic bacteria (UCSF School of Preventive Dentistry study); assay type: cell-based; conditions: 0.5% zinc solution
Description: (§1) In another preferred embodiment of the invention, the formulation includes one or more zinc salt or other source of the zinc ion. Metabolically, zinc is a critical nutrient in the synthesis of insulin and the metabolism of carbohydrates. From a dental perspective, cariogenic bacteria enzymatically produce an insoluble glucan deposit from simple sugars present in the mouth that firmly adheres to the enamel tooth surface.

sobrinus streptococci = experiment: as above; assay type: cell-based; conditions: 0.5% zinc solution
Description: as §1

zinc ascorbate
inhibited: adherence of mutans streptococci (mutans streptococci) | growth of mutans streptococci (mutans streptococci) | adherence of sobrinus streptococci (sobrinus streptococci) | growth of sobrinus streptococci (sobrinus streptococci)

[Cl-].[Cl-].[Zn+2] [zinc chloride]
inhibited: adherence of mutans streptococci (mutans streptococci) | growth of mutans streptococci (mutans streptococci) | adherence of sobrinus streptococci (sobrinus streptococci) | growth of sobrinus streptococci (sobrinus streptococci)
